20 molecules from patent US7671058B2, “N-(3,4-disubstituted phenyl) salicylamide derivatives” (Institute of Medicinal Molecular Design, Inc., priority 2006, dated 2010) can be followed below.

Like-named read-outs stand apart in the source and are kept apart here.

For experiment [1], the system named is STAT6. In words: STAT6 inhibition test: (GLS)x8/pTA-Luc luciferase reporter in U2-OS cells stimulated with human IL-4. The format is cell-based. The note with it: human IL-4 40 ng/mL; for inhibition at 2 µM / Inhibition Rate of STAT6 (%): compound 2 μM, 8 hours; for inhibition at 2 µM: read-out: Inhibition Rate of STAT6 (%); for IC50: from inhibition rates at 1, 0.1, 0.01 and 0.001 μM, read-out: IC50 against activation of STAT6. The source says:
(1) Construction of a STAT6 Reporter Plasmid
The Oligonucleotides (SEQ ID: 1, 2) containing two copies of STAT6 binding sequences (refer to J. Biol. Chem., vol. 276, No. 9, pp. 6675-6688 (2001).) were synthesized, and integrated into the enhancer region of the reporter plasmid pTA-Luc Vector (CLONTECH Laboratories, Inc.) at the restriction enzyme BgIII site.
When the oligonucleotide is integrated in positive direction into the plasmid, the upstream BglII site is not reconstructed. Therefore, STAT6 binding sequences can be increased by repeating integration of the oligonucleotide at the restriction enzyme BglII site.
In the present test, a plasmid including eight integrated STAT6 binding sequences was constructed and provided for the reporter assay as (GLS)x8/pTA-Luc. Confirmation of the sequences was carried out using an automated fluorescence sequencer (Model 310 (Applied Biosystems)).
(2) Transfection into U2-OS Cells and Inhibition Test for STAT6 Activation
U2-OS cells were seeded to at 2×10^4 cells/well in 96-well culture plates, and transfection was carried out using FuGENE 6 Transfection Reagent (Roche Diagnostics GmbH). The procedures of the transfection are shown below.
11 μg of reporter plasmid ((GLS)x8/pTA-Luc) and 1.1 μg of pCMV β (CLONTECH Laboratories, Inc.) were mixed in 1.1 mL of OPTI-MEM I medium (GIBCO BRL) (solution (A)).
33 μL of FuGENE 6 Transfection Reagent was mixed in 1.1 mL of OPTI-MEM I medium (solution (B)).
(§1) The above solution (A) and solution (B) were mixed, let them stand for 15 minutes at room temperature, then, 8.8 mL of OPTI-MEM I medium was added and diluted.
To this transfection solution, U2-OS cell suspension (11 mL) in McCoy's 5A medium (GIBCO BRL) containing 10% Fetal Bovine Serum (FBS; GIBCO BRL) at 2×10^5 cells/mL was added and well mixed.
(§2) 0.2 mL of the above solution was dispensed into each well of 96-well culture plates, and incubated for 24 hours (37° C., 5% CO2).
After removal of 50 μL of medium from each well, 50 μL of McCoy's 5A medium (serum-free) containing compound, of the present application was added to a final concentration of 0.01˜2 μM (0.001, 0.01, 0.1, 0.5, 1 or 2 μM), and the plates were incubated for 2 hours (37° C., 5% CO2).
10 μL of the McCoy's 5A medium (serum-free) containing human IL-4 (R&D Systems, Inc) was added to each well to achieve a final concentration of 40 ng/mL, and incubated for 8 hours (37° C., 5% CO2).
(§3) Medium was completely removed and plates were preserved at −80° C. until measurements.
(§4) Cell lysates were prepared by adding 40 μL of Passive Lysis Buffer (Promega Corporation) to each well.
(§5) 10 μL of each lysate was transferred to 96-well white plates. 50 μL of PicaGene L.T.2.0 (TOYO INK MFG. CO., LTD.) was added to each well, then, luminescence was measured after leaving for 10 minutes at room temperature.
(§6) 10 μL of each lysate was transferred to 96-well black plates. 100 μL of Z Buffer (preparation method will be explained later) was added to each well, and fluorescence was measured immediately.
(§7) 10 μL of each lysate was transferred to 96-well clear plates. 200 μL of protein assay reagent prepared from the BCA Protein Assay Kit (Pierce Biotechnology, Inc.) was added to each well, and, absorbance was measured after incubation for 30 minutes at 37° C.
(§8) For measurements of luminescence, fluorescence, and absorbance, microplate reader GENios (TECAN G.M.B.H.) was used.
(4) Calculation of Inhibition Rate
Luminescence values that show the degree of activation by IL-4 stimulation were normalized by β-gal values that show transfection efficiency. Using the normalized values, the following calculations were carried out using the luminescence values increased by IL-4 stimulation. Inhibition Rate(%)=[…] E: In the presence of the compound of the present application, increased luminescence value by IL-4 stimulation C: Without the presence of the compound of the present application, increased luminescence value by IL-4 stimulation […]

Experiment [2] relates to NF-κB. As to the kind of experiment: NF-κB inhibition test: pNFκB-Luc luciferase reporter in U2-OS cells stimulated with human TNF α. The note with it: human TNF α 10 ng/mL; for inhibition at 2 µM / Inhibition Rate of NF-κB (%): compound 2 μM, 8 hours; for inhibition at 2 µM: read-out: Inhibition Rate of NF-κB (%); for IC50: from inhibition rates at 1, 0.1, 0.01 and 0.001 μM, read-out: IC50 against activation of NF-κB. The format is cell-based. Here is the method: (1) Transfection to U2-OS Cells and Inhibition Test of Activation
U2-OS cells were seeded at 2×10^4 cells/well in 96-well culture plate, and transfection was carried out using FuGENE 6 Transfection Reagent (Roche Diagnostics GmbH). The procedures of the transfection are shown below.
11 μg of reporter plasmid (pNFκB-Luc; Stratagene Corporation) and 1.1 μg of pCMV β (CLONTECH Laboratories, Inc.) were mixed in 1.1 mL of OPTI-MEM I medium (GIBCO BRL) (solution (A)).
[…] of FuGENE 6 Transfection Reagent was mixed in 1.1 mL of OPTI-MEM I medium (solution (B)).
as §1
To this transfection solution, U2-OS cell suspension (11 mL) in McCoy's 5A medium (GIBCO BRL) containing 10% Fetal Bovine Serum (FBS; GIBCO BRL) at […] was added and well mixed.
as §2
After removal of 50 μL of medium from each well, 50 μL of McCoy's 5A medium (serum-free) containing compound of the present application was added to a final concentration of 0.01˜2 μM (0.001, 0.01, 0.1, 0.5, 1 or 2 μM), and the plates were incubated for 2 hours (37° C., 5% CO2).
10 μL of the McCoy's 5A medium (serum-free) containing human TNF α (PEPROTECH EC Ltd.) was added to each well to achieve a final concentration of 10 ng/mL, and incubated for 8 hours (37° C., 5% CO2).
as §3, §4, §5, §6, §7, §8
(3) Calculation of Inhibition Rate
Luminescence values that show the degree of activation by TNF α stimulation were normalized by β-gal values that show transfection efficiency. Using the normalized values, the following calculation was carried out using the luminescence values that increased by TNF α stimulation. Inhibition Rate(%)=[…] E: In the presence of the compound of the present application, increased luminescence values by TNF α stimulation C: Without the presence of the compound of the present application, increased luminescence values by TNF α, stimulation
The values of protein assay by BCA reagent were used for a simple assessment of cytotoxicity, and not used for the calculation of inhibition rates.
NF-κB Inhibition Rates are shown below. The values in parentheses in the table represent the concentration of the compound of the present application.
NF-κB inhibition rates where the concentrations of the compound of the present application were 1, 0.1, 0.01 and 0.001 μM were calculated, and the 50% inhibitory concentrations (IC50) of the compounds of the present application against activation of NF-κB were evaluated.

Turning to `O=C(Nc1ccc(N2CCNCC2)c(F)c1)c1cc(Cl)ccc1O` [Compound 22], in experiment [1] (U2OS), the inhibition at 2 µM came to 85% and the IC50 amounted to 82.3 nM. In experiment [2] (U2OS), the inhibition at 2 µM is 82% and the IC50 was 80.8 nM.

As to `NC1CCN(c2ccc(NC(=O)c3cc(Cl)ccc3O)cc2F)CC1` [Compound 27], in experiment [1] (U2OS), the inhibition at 2 µM turned out to be 98% and the IC50 was 3.22 nM. Moreover, in experiment [2] (U2OS), the inhibition at 2 µM turned out to be 95% and the IC50 worked out at 6.79 nM.

Consider `O=C(Nc1ccc(C2CCNCC2)c(F)c1)c1cc(Cl)ccc1O` [Compound 41], for which the inhibition at 2 µM in experiment [1] (U2OS) was determined as 78%; in experiment [2] (U2OS), 74%.

As for `CNC1CCN(c2ccc(NC(=O)c3cc(Cl)ccc3O)cc2F)CC1` [Compound 68], in experiment [1] (U2OS), the inhibition at 2 µM came out at 74% and the IC50 came out at 40.4 nM. Further, in experiment [2] (U2OS), the inhibition at 2 µM worked out at 71% and the IC50 is 63.6 nM.

Turning to `CN(C)C1CCN(c2ccc(NC(=O)c3cc(Cl)ccc3O)cc2F)CC1` [Compound 78], the inhibition at 2 µM in experiment [1] (U2OS) stood at 46%; in experiment [2] (U2OS) it was 49%.

As to `O=C(Nc1cc(C(F)(F)F)cc(C(F)(F)F)c1)c1cc(Cl)ccc1O` [N-[3,5-Bis(trifluoromethyl)phenyl]-5-chloro-2-hydroxybenzamide, reference compound], in experiment [2] (U2OS), the IC50 stood at 385 nM.

Regarding `O=C(Nc1ccc(N2CCCCC2)c(F)c1)c1cc(Cl)ccc1O` [compound 2], in experiment [1], the “Inhibition Rate of STAT6 (%)” value is recorded as 90 (2 μM) % and the IC50 is 58.1 nM. In experiment [2], the “Inhibition Rate of NF-κB (%)” value is reported as 77 (2 μM) % and the IC50 came to 39.4 nM.

With `O=C(Nc1ccc(N2CCOCC2)c(C(F)(F)F)c1)c1cc(Cl)ccc1O` [compound 3], in experiment [1], the “Inhibition Rate of STAT6 (%)” value is 67 (2 μM) %. The “Inhibition Rate of NF-κB (%)” value in experiment [2] is 30 (2 μM) %.

As for `O=C(Nc1ccc(N2CCCCC2)c(C(F)(F)F)c1)c1cc(Cl)ccc1O` [compound 4], the “Inhibition Rate of STAT6 (%)” value in experiment [1] is 71 (2 μM) %. The “Inhibition Rate of NF-κB (%)” value in experiment [2] is 28 (2 μM) %.

For `O=C(Nc1ccc(OC2CCCCC2)c(C(F)(F)F)c1)c1cc(Cl)ccc1O` [compound 5], the “Inhibition Rate of STAT6 (%)” value in experiment [1] was 88 (2 μM) %. Moreover, the “Inhibition Rate of NF-κB (%)” value in experiment [2] is recorded as 63 (2 μM) %.

In the case of `O=C(Nc1ccc(N2CCCCCC2)c(F)c1)c1cc(Cl)ccc1O` [compound 7], in experiment [1], the “Inhibition Rate of STAT6 (%)” value was 84 (2 μM) %. Moreover, the “Inhibition Rate of NF-κB (%)” value in experiment [2] is given as 46 (2 μM) %.

Consider `O=C(Nc1ccc(N2CCCCC2)c(Cl)c1)c1cc(Cl)ccc1O` [compound 8], for which the “Inhibition Rate of STAT6 (%)” value in experiment [1] was 93 (2 μM) %. For the same molecule, the “Inhibition Rate of NF-κB (%)” value in experiment [2] was 61 (2 μM) %.

For the molecule `Cc1cc(NC(=O)c2cc(Cl)ccc2O)ccc1N1CCCCC1` [compound 9], in experiment [1], the “Inhibition Rate of STAT6 (%)” value was 53 (2 μM) %.

On to `O=C(Nc1ccc(OC2CCCCC2)c(F)c1)c1cc(Cl)ccc1O` [compound 10], for which the “Inhibition Rate of STAT6 (%)” value in experiment [1] is given as 76 (2 μM) %. Moreover, the “Inhibition Rate of NF-κB (%)” value in experiment [2] is listed as 45 (2 μM) %.

As to `CC(=O)N1CCN(c2ccc(NC(=O)c3cc(Cl)ccc3O)cc2F)CC1` [compound 11], in experiment [1], the “Inhibition Rate of STAT6 (%)” value was 40 (2 μM) %. Besides, the “Inhibition Rate of NF-κB (%)” value in experiment [2] is given as 22 (2 μM) %.

Regarding `CN1CCN(c2ccc(NC(=O)c3cc(Cl)ccc3O)cc2F)CC1` [compound 12], in experiment [1], the “Inhibition Rate of STAT6 (%)” value is recorded as 94 (2 μM) % and the IC50 turned out to be 15 nM. In experiment [2], the “Inhibition Rate of NF-κB (%)” value is given as 91 (2 μM) % and the IC50 stood at 25.2 nM.

As to `CN1CCN(c2ccc(NC(=O)c3ccccc3O)cc2F)CC1.Cl` [compound 30], in experiment [1], the “Inhibition Rate of STAT6 (%)” value is recorded as 19 (2 μM) %.

On to `Cl.O=C(Nc1ccc(OC2CCCNC2)c(F)c1)c1cc(Cl)ccc1O` (centres unmarked) [compound 56], for which the “Inhibition Rate of STAT6 (%)” value in experiment [1] is recorded as 19 (2 μM) %.

As to `CC1CN(c2ccc(NC(=O)c3cc(Cl)ccc3O)cc2F)CCN1.Cl` (centres unmarked) [compound 73], the “Inhibition Rate of STAT6 (%)” value in experiment [1] is 20 (2 μM) %.

`CC1CCCN1c1ccc(NC(=O)c2cc(Cl)ccc2O)cc1F` (centres unmarked) [compound 82]: in experiment [1], the “Inhibition Rate of STAT6 (%)” value is 38 (2 μM) %.
